Assay results from patent publication EP1201238A1, “SULFONAMIDE DERIVATIVES AND REMEDIES FOR ALLODYNIA” (ONO PHARMACEUTICAL CO., LTD., priority 1999, dated 2001).

What was measured:
[1] = system: Allodynia caused by PGF2α; test: inhibitory effect on allodynia caused by intrathecal injection of PGF2α; assay type: in vivo, male ddY mice; conditions: mixture of PGF2α (1µg/body) and compound (100ng/body) injected intrathecally, mice, touch-stimulus score 15min after administration
Experimental: (§1) Five or six male ddY mice weighing 22± 2 g in a group were used. Under non-anesthesia, the mixture (5µL) of PGE2 (10ng/body) and a compound (10ng/body) with 27-gauge was injected intrathecally with stainless injection needle (0.33 mm, o.d.) between fifth and sixth vertebra lumbar of a mouse, 5. min after administration, to tail from belly side of a mouse was touch-stimulated with brush and allodynia was evaluated by score.
(§2) Score is 0: no changed, 1: escaped from touch-stimulus and squeaked, 2: escaped vigorously from touch-stimulus and squeaked loudly. When All the subjects got score 2, it was evaluated as 100% of allodynia expression.
(§3) For example, When, in six mice, score 0 is one, score 1 is three and score 2 is two, % of allodynia expression is below: ((0×1) + (1×3) + (2×2))/(6×2)× 100 = 58. 3(%) [formula]
(2) an inhibitory effect on allodynia caused by intrathecal injection of PGF2α
The experiment was the same as (1) with the exception that the mixture of PGF2α (1µg/body) and a compound (100ng/body) was used as administered drug and allodynia was evaluated at 15min after administration.

[2] = system: Allodynia caused by PGE2; test: inhibitory effect on allodynia caused by intrathecal injection of PGE2; assay type: in vivo, male ddY mice; conditions: for % of allodynia expression, Allodynia caused by PGE2: mixture of PGE2 (10ng/body) and compound (10ng/body) injected intrathecally, mice, touch-stimulus score 5 min after administration, 100% = all subjects score 2; for anti-allodynia effect (in words): summary of tables 1, 2 and 3 (PGE2- and PGF2α-induced allodynia, mice)
Experimental: (1) an inhibitory effect on allodynia caused by intrathecal injection of PGE2
as §1, §2, §3

[3] = toxicity, maximal tolerated dose with oral administration; conditions: in vivo, rat
Experimental: The toxicity of the compounds of the present invention is very low and therefore the compounds may be considered safe for pharmaceutical use. For example, the maximal tolerated dose with oral administration of the compounds of formula (I), (IV) and (VI) was more than 2000 mg/kg in rat.

Row | SMILES | % of allodynia expression, Allodynia caused by PGF2α [1] | % of allodynia expression, Allodynia caused by PGE2 [2] | anti-allodynia effect (in words) [2] | MTD [3]
1 | O=C(O)CCC/C=C\[C@H]1[C@H]2CC[C@H](C2)[C@@H]1CNS(=O)(=O)c1ccc(F)c(F)c1 [Formula(III), 6-[(1S,2S,3S,4R)-3-(3,4-difluorophenylsulfonylaminomethyl)bicyclo[2.2.1]heptan-2-yl]-5Z-hexenoic acid] | 8.3 ± 8.3% | 0.0 ± 0.0% | effective | –
2 | O=C(O)CCC/C=C\[C@H]1[C@@H]2CC[C@@H](C2)[C@@H]1CNS(=O)(=O)c1cc(F)ccc1F [Formula(IV), 6-[(1R,2S,3S,4S)-3-(2,5-difluorophenylsulfonylaminomethyl)bicyclo[2.2.1]heptan-2-yl]-5Z-hexenoic acid] | 0.0 ± 0.0% | 8.3 ± 8.3% | effective | > 2000 mg/kg
3 | O=C(O)CCC/C=C\[C@H]1[C@H]2CC[C@H](C2)[C@@H]1CNS(=O)(=O)c1ccccc1Cl [comparison compound 1, 6-[(1S,2S,3S,4R)-3-(2-chlorophenylsulfonylaminomethyl)bicyclo[2.2.1]heptan-2-yl]-5Z-hexenoic acid, reference compound] | 91.7 ± 8.3% | 100 ± 0.0% | no effect | –
4 | O=C(O)CCC/C=C\[C@H]1[C@@H]2CC[C@@H](C2)[C@@H]1CNS(=O)(=O)c1ccccc1I [comparison compound 2, 6-[(1R,2S,3S,4S)-3-(2-iodophenylsulfonylaminomethyl)bicyclo[2.2.1]heptan-2-yl]-5Z-hexenoic acid, reference compound] | – | 83.3 ± 10.5% | – | –
5 | O=C(O)CCC/C=C\[C@H]1[C@H]2CC[C@H](C2)[C@@H]1CNS(=O)(=O)c1c(Cl)cccc1Cl [comparison compound 3, 6-[(1S,2S,3S,4R)-3-(2,6-dichlorophenylsulfonylaminomethyl)bicyclo[2.2.1]heptan-2-yl]-5Z-hexenoic acid, reference compound] | – | 91.7 ± 8.3% | no effect | –
6 | O=C(O)CCC/C=C\[C@H]1[C@@H]2CC[C@@H](C2)[C@@H]1CNS(=O)(=O)c1ccc(F)c(F)c1 [comparison compound 4, 6-[(1R,2S,3S,4S)-3-(3,4-difluorophenylsulfonylaminomethyl)bicyclo[2.2.1]heptan-2-yl]-5Z-hexenoic acid, reference compound] | – | 75.0 ± 11.2% | – | –
7 | CC1(C)[C@H]2C[C@H](NS(=O)(=O)Cc3ccccc3)[C@@H](C/C=C\CCCC(=O)O)[C@@H]1C2 [comparison compound 5, 7-[(1S,2S,3S,5R)-3-benzylsulfonylamino-6,6-dimethylbicyclo[3.1.1]heptan-2-yl]-5Z-heptenoic acid, reference compound] | 83.3 ± 10.5% | 83.3 ± 10.5% | – | –
8 | O=C(O)CCC/C=C\C[C@H]1[C@@H]2CC[C@@H](C2)[C@@H]1NS(=O)(=O)c1ccccc1 [comparison compound 6, reference compound] | 60.0 ± 10.0% | 90.0 ± 10.0% | – | –
9 | O=C(O)CCC/C=C\[C@H]1[C@H]2CC[C@H](C2)[C@@H]1CNS(=O)(=O)c1ccccc1I [formula (I), 6-[(1S,2S,3S,4R)-3-(2-iodophenylsulfonylaminomethyl)bicyclo[2.2.1]heptan-2-yl]-5Z-hexenoic acid] | 8.3 ± 8.3% | 8.3 ± 8.3% | – | > 2000 mg/kg
10 | O=C(O)CCC/C=C\[C@H]1[C@H]2CC[C@H](C2)[C@@H]1CNS(=O)(=O)c1ccccc1F [formula (II), 6-[(1S,2S,3S,4R)-3-(2-fluorophenylsulfonylaminomethyl)bicyclo[2.2.1]heptan-2-yl]-5Z-hexenoic acid] | 8.3 ± 8.3% | 0.0 ± 0.0% | – | –
11 | COc1ccc(S(=O)(=O)N[C@H]2C[C@H]3C[C@@H]([C@@H]2C/C=C\CCCC(=O)O)C3(C)C)cc1 [formula (V), 7-[(1S,2S,3S,5R)-3-(4-methoxybenzenesulfonylamino)-6,6-dimethylbicyclo [3.1.1]heptan-2-yl]-5Z-heptenoic acid] | 8.3 ± 8.3% | 8.3 ± 8.3% | have activity | –
12 | CC1(C)[C@H]2C[C@H](NS(=O)(=O)c3ccccc3)[C@@H](C/C=C\CCCC(=O)O)[C@@H]1C2 [formula (VI), 7-[(1S,2S,3S,5R)-3-benzenesulfonylamino-6,6-dimethylbicyclo[3.1.1]heptan-2-yl]-5Z-heptenoic acid] | 0.0 ± 0.0% | 8.3 ± 8.3% | have activity | > 2000 mg/kg
